Reference: publication PMC4749533, “Scintillation proximity assay (SPA) as a new approach to determine a ligand’s kinetic profile. A case in point for the adenosine A1 receptor” (Purinergic Signalling, 2015)

Experiments:
Format in all cases: binding
[1] = target: T1, human adenosine A1 receptor (hA1R) (Homo sapiens, UniProt P30542); test: Competition association with [3H]-DPCPX, filtration assay; conditions: 28 °C, 1 mM GTP present for LUF5834, CCPA, NECA; for Filtration assay RT: 1/k off
T1 construct: Steve Hill (University of Nottingham, UK); host or cells: CHO cells stably expressing hA1R; membrane preparation
T1 sequence (P30542 1-326): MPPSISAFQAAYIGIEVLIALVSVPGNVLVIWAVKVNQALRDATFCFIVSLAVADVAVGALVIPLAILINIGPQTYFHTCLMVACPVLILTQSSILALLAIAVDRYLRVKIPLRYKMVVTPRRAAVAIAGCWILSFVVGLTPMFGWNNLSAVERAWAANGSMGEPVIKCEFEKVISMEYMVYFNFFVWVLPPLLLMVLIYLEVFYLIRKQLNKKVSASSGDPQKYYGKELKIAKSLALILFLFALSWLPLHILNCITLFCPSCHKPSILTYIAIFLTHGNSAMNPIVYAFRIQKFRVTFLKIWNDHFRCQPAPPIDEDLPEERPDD
Method: (§1) The binding kinetics of unlabeled ligands was quantified using the competition association assay based on the theoretical framework by Motulsky and Mahan.
The competition association assay was initiated by adding membrane aliquots (5 μg per well) at different time points for a total of 2 h in the absence or presence of competing ligand.

[2] = target: T1, human adenosine A1 receptor (hA1R); test: Competition association with [3H]-DPCPX, SPA technology; conditions: 28 °C, 1 mM GTP present for LUF5834, CCPA, NECA; for SPA RT: 1/k off
Method: as §1
The membrane-bead mixture was prepared as described under “Radioligand displacement experiments.” Once the membrane-bead mixture was added to the wells of an Isoplate-96 Microplate, measurements of radioligand bound to the receptor were started immediately and continued every 30 s for 2 h, using the 2450 MicroBeta^2 Plate Counter.

[3] = target: T1, human adenosine A1 receptor (hA1R); test: Radioligand displacement of [3H]-DPCPX, SPA technology; conditions: CHO-hA1R membranes, one-state model
Method: (§2) Non-specific binding (NSB) was determined in the presence of 100 μM CPA. Each condition was measured in duplicate, and at least three individual experiments were performed.
A mixture of 5 μg protein membrane and 1 mg SPA bead was pre-coupled in a shaker (Vibrax VXR, IKA) in a volume of 50 μL of assay buffer at room temperature for 30 min. Then, together with the radioligand and competing ligands, the membrane-bead mixture was dispatched in an Isoplate-96 Microplate (Perkin Elmer, Groningen, the Netherlands), in a final reaction volume of 100 μL. The plate was incubated for 1 h inside the counting chamber of a 2450 MicroBeta^2 Plate Counter (Perkin Elmer, Groningen, the Netherlands) at the ambient temperature of 28 °C. The binding values were recorded in corrected counts per minute (CCPM).

[4] = target: T1, human adenosine A1 receptor (hA1R); test: Radioligand displacement of [3H]-DPCPX, filtration assay; conditions: CHO-hA1R membranes, one-state model
Method: as §2
Membrane aliquots containing 5 μg protein were incubated together with the radioligand and competing ligands in a total volume of 100 μL assay buffer in a 96-well plate. After 1 h incubation at room temperature, the incubation was terminated by rapid vacuum filtration to separate the bound and free radioligand through 96-well GF/B filter plates using a PerkinElmer Filtermate-harvester (Perkin Elmer, Groningen, the Netherlands). Filters were subsequently washed three times with ice-cold wash buffer (50 mM Tris-HCl [pH 7.4], supplemented with 5 mM MgCl2). After 30 min of dehydration of the filter plate at 50 °C, the filter-bound radioactivity was determined by scintillation spectrometry using the 2450 MicroBeta^2 Plate Counter. The binding values were recorded in both counts per minute (CPM) and disintegrations per minute (DPM).

Filtration assay RT [1] [min] | SPA RT [2] [min] | Ki [3] [nM] | Ki [4] [nM] | Filtration assay k off (k4) ([1]; […] [3H]-DPCPX) [s⁻¹] | Filtration assay k on (k3) ([1]; […] [3H]-DPCPX) [M⁻¹ s⁻¹] | Kd ([1]; k off/k on, read-out: Filtration assay Kinetic K D) [nM] | SPA k off (k4) ([2]; […] [3H]-DPCPX) [s⁻¹] | SPA k on (k3) ([2]; […] [3H]-DPCPX) [M⁻¹ s⁻¹] | Kd ([2]; k off/k on, read-out: SPA Kinetic K D) [nM] | Structure (SMILES)
0.68 ± 0.01 | 1.4 ± 0.1 | – | – | – | – | – | – | – | – | OC[C@H]1O[C@@H](n2cnc3c(NC4CCCC4)nc(Cl)nc32)[C@H](O)[C@@H]1O [CCPA, 2-chloro-N^6-cyclopentyladenosine]
3.7 ± 0.4 | 2.0 ± 0.1 | – | – | – | – | – | – | – | – | CCCn1c(=O)c2[nH]c(C3CCCC3)nc2n(CCC)c1=O [DPCPX, 1,3-Dipropyl-8-cyclopentyl-xanthine]
4.4 ± 0.5 | 2.0 ± 0.1 | 6.2 ± 0.5 | 4.3 ± 0.6 | 0.00383 ± 0.0005 | 1.03e+06 ± 100000 | 3.7 ± 0.5 | 0.00833 ± 0.00083 | 2.17e+06 ± 830000 | 3.9 ± 1.5 | N#Cc1c(N)nc(SCc2ncc[nH]2)c(C#N)c1-c1ccc(O)cc1 [LUF5834]

Structure (SMILES) | Filtration assay RT [1] [min] | SPA RT [2] [min] | Ki [3] [nM] | Ki [4] [nM] | Filtration assay k off (k4) ([1]; […] [3H]-DPCPX) [s⁻¹] | Filtration assay k on (k3) ([1]; […] [3H]-DPCPX) [M⁻¹ s⁻¹] | Kd ([1]; k off/k on, read-out: Filtration assay Kinetic K D) [nM] | SPA k off (k4) ([2]; […] [3H]-DPCPX) [s⁻¹] | SPA k on (k3) ([2]; […] [3H]-DPCPX) [M⁻¹ s⁻¹] | Kd ([2]; k off/k on, read-out: SPA Kinetic K D) [nM]
CCCn1c(=O)c2[nH]c(C3CCCC3)nc2n(CCCOC(=O)c2ccc(S(=O)(=O)F)cc2)c1=O [FSCPX, 8-cyclopentyl-3-N-[3-((3-(4-fluorosulphonyl)benzoyl)-oxy)-propyl]-1-N-propyl-xanthine] | 167 ± 56 | 156 ± 31 | – | – | – | – | – | – | – | –
